{"source": "patent US11891634B2", "about": "“PDE5A destabilizing domains” (The Board of Trustees of the Leland Stanford Junior …, priority 2017, dated 2024)", "key": {"[1]": {"tested_on": "NIH3T3 cells expressing AcGFP-PDE5A fusions", "assay": "FACS analysis of C-terminal PDE5A mutants (AcGFP-PDE5A fusions), Sildenafil vs vehicle", "type": "cell-based, mouse", "details": "for Mean Fluorescence intensity: NIH3T3; for Stabilization ratio: Sildenafil 10 μM vs vehicle alone; for basal expression in the absence of ligand (in words): extended PDE5A variants, NIH3T3, no Sildenafil", "experimental": "(§1) The NIH3T3 cell line was cultured in DMEM supplemented with 10% heat-inactivated donor bovine serum (Invitrogen), 2 mM glutamine, 100 U/ml penicillin and 100 μg/ml streptomycin.\n(§2) The ΦNX ecotropic packaging cell line was transfected using standard Lipofectamine 2000 protocols. Viral supernatants were harvested 48 hours, post transfection, filtered and concentrated 10-fold using Amicon Ultra centrifugal filter device with a 100kDa cutoff. NIH 3T3 cells were incubated with concentrated retroviral supernatants supplemented with 4 μg/ml polybrene for 4 hours at 37° C. Cells were washed once with PBS and cultured in growth media for 24-36 hours to allow for viral integration.\n(§3) The transduced NIH3T3 cells were subjected to analysis using fluorescence-activated cell sorting (FACS) to screen the libraries of PDE5A mutants. 24 hours prior to analysis, transduced NIH3T3 cells were plated at 1×10^5 cells per well of a 12-well plate. Cells were removed from the plate using PBS and 2 mM EDTA, washed once with PBS, and resuspended in 200 μL, PBS. FACS analysis was performed on instruments at the Stanford Shared FACS Facility with 10,000 events represented.\n(§4) To identify destabilizing domains that are responsive to the PDE5A ligand, Sildenafil, a cell-based screening assay was employed in which the fluorescence of green fluorescent protein derived from Aequorea coerulescens (AcGFP) served as an indicator of PDE5A stability. A library based on the PDE5A catalytic domain sequences was generated using error prone PCR and then cloned in-frame in front of AcGFP. A Moloney murine leukemia retroviral expression was used to stably integrate this library of PDE5A-AcGFP fusions into NIH-3T3 fibroblasts, and the transduced cells were subjected to three rounds of sorting using flow cytometry. In the first round, cells were treated with 10 μM of PDE5A ligand, Sildenafil for 16-24 before analysis. Fluorescent cells were collected and further cultured in the absence of ligand for 60 hours.\n(§5) A library of AcGFP-PDE5A fusions i.e., C-terminal PDE5A mutants was screened using the cell-based screening assay described previously to identify C-terminal destabilizing domains. […] Identified candidates were subjected to further characterization by FACS. Cells were split into two treatment groups and incubated with either Sildenafil (10 μM) or vehicle alone for 24 hours. Cells that were mock transduced or transduced with the wild-type PDE5A construct were also included in the analysis. The stabilization ratio was calculated as the fold change in GFP intensity of the AcGFP-PDE5A construct in Sildenafil treated sample compared to vehicle alone treated sample. The results are presented in Table 2 where the C terminal PDE5A mutants are denoted as PDE5AC.\nResidue D764 was identified as a mutational hotspot from sequence analysis. PDE5AC (#41) was engineered with either D764N or D764G mutation via site-directed mutagenesis. PDE5AC (#41) +D764N comprises the amino acid sequence of SEQ ID NO. 53 (encoded by SEQ ID NO. 54) and PDE5AC (#41) +D764G comprises the amino acid sequence of SEQ ID NO. 55 (encoded by SEQ ID NO. 56). AcGFP-PDE5A variants were evaluated for Sildenafil dependent stabilization via FACS as described previously. Results from FACS analysis are presented in Table 4 where the C terminal PDE5A mutants are denoted as PDE5AC. The stabilization ratio was calculated as the fold change in GFP intensity of the AcGFP-PDE5A construct in Sildenafil treated sample compared to vehicle alone treated sample.\nExtended versions of human PDE5A that included residues in addition to catalytic domain (residues 535-860 of SEQ ID NO. 1) with Q589R polymorphism (SEQ ID NO. 11) were evaluated for use as C-terminal destabilizing domains. Three extended PDE5A sequences were tested that consisted of residues 535-875 of SEQ ID NO. 1 with Q589R polymorphism (SEQ ID NO. 13); residues 466-875 of SEQ ID NO. 1 with Q589R polymorphism (SEQ ID NO. 15); or residues 420-875 of SEQ ID NO. […]"}, "PDE5A-AcGFP fusions": {"tested_on": "PDE5A-AcGFP fusions", "assay": "FACS analysis of N-terminal PDE5A mutants (PDE5A-AcGFP fusions), Sildenafil vs vehicle", "type": "cell-based, mouse", "details": "24 hours; for Stabilization ratio: Sildenafil 20 μM vs vehicle alone; for Mean Fluorescence Intensity (MFI) Sildenafil (20 μM) / Mean Fluorescence Intensity (MFI) Vehicle control: NIH3T3; for Mean Fluorescence Intensity (MFI) Vehicle control: vehicle alone", "experimental": "as §1, §2, §3, §4\nas §5, with “PDE5A-AcGFP” for “AcGFP-PDE5A”, “N-terminal” for “C-terminal”, “mutants,” for “mutants”, “(20” for “(10”, “The results are presented in Table 6 where the N terminal PDE5A mutants are denoted as PDE5AN. The” for “The”, “sample.” for “sample. The results are presented in Table 2 where the C terminal PDE5A mutants are denoted as PDE5AC.”"}, "[2]": {"details": "Table 2, Sildenafil (10 μM) +, 24 hours"}, "[3]": {"details": "Table 2, Sildenafil (10 μM) −, vehicle alone, 24 hours"}, "[4]": {"details": "Table 2, fold change in GFP intensity, 24 hours"}, "[5]": {"details": "Table 4 (D764 mutations), Sildenafil (10 μM) +"}, "[6]": {"details": "Table 4 (D764 mutations), Sildenafil (10 μM) −"}, "[7]": {"details": "Table 5 (extended variants), Sildenafil (10 μM) +"}, "[8]": {"details": "Table 5 (extended variants), Sildenafil (10 μM) −"}}, "data": [{"substance": "PDE5AC (#40): AcGFP fused to C-terminal DD 535-860 of PDE5A (Q589R, D764G), SEQ ID NO. 26", "values": [{"measurement": "Mean Fluorescence intensity", "setting": "[1]; [2]", "value": 5923}, {"measurement": "Mean Fluorescence intensity", "setting": "[1]; [3]", "value": 1255}, {"measurement": "Stabilization ratio", "setting": "[1]; [4]", "value": 4.7}, {"measurement": "Mean Fluorescence intensity", "setting": "[1]; [5]", "value": 4229}, {"measurement": "Mean Fluorescence intensity", "setting": "[1]; [6]", "value": 917}, {"measurement": "Stabilization ratio", "setting": "[1]; Table 4", "value": 4.6}]}, {"substance": "PDE5AC 420-875 (Q589R): AcGFP fused to residues 420-875 of SEQ ID NO. 1 with Q589R polymorphism, SEQ ID NO. 17", "values": [{"measurement": "Mean Fluorescence intensity", "setting": "[1]; [7]", "value": 572}, {"measurement": "Mean Fluorescence intensity", "setting": "[1]; [8]", "value": 620}, {"measurement": "Stabilization ratio", "setting": "[1]; Table 5", "value": 0.9}, {"measurement": "basal expression in the absence of ligand (in words)", "setting": "[1]", "value": "low basal expression"}]}, {"substance": "PDE5AN (#19): N-terminal DD 535-860 of PDE5A (Q589R, I599V, T711A, F744L, L746S, L804P), SEQ ID NO. 31, fused to AcGFP", "values": [{"measurement": "Stabilization ratio", "setting": "PDE5A-AcGFP fusions", "value": 2.86}, {"measurement": "Mean Fluorescence Intensity (MFI) Sildenafil (20 μM)", "setting": "PDE5A-AcGFP fusions", "value": 4297}, {"measurement": "Mean Fluorescence Intensity (MFI) Vehicle control", "setting": "PDE5A-AcGFP fusions", "value": 1502}]}, {"substance": "PDE5AC 535-875 (Q589R): AcGFP fused to residues 535-875 of SEQ ID NO. 1 with Q589R polymorphism, SEQ ID NO. 13", "values": [{"measurement": "Mean Fluorescence intensity", "setting": "[1]; [7]", "value": 6462}, {"measurement": "Mean Fluorescence intensity", "setting": "[1]; [8]", "value": 6761}, {"measurement": "Stabilization ratio", "setting": "[1]; Table 5", "value": 1.0}, {"measurement": "basal expression in the absence of ligand (in words)", "setting": "[1]", "value": "high basal expression"}]}, {"substance": "PDE5AN (#30): N-terminal DD 535-860 of PDE5A (Q589R, L675P, F755L), SEQ ID NO. 69, fused to AcGFP", "values": [{"measurement": "Stabilization ratio", "setting": "PDE5A-AcGFP fusions", "value": 4.46}, {"measurement": "Mean Fluorescence Intensity (MFI) Sildenafil (20 μM)", "setting": "PDE5A-AcGFP fusions", "value": 4713}, {"measurement": "Mean Fluorescence Intensity (MFI) Vehicle control", "setting": "PDE5A-AcGFP fusions", "value": 1056}]}, {"substance": "PDE5AC (#41) + D764N: PDE5AC (#41) engineered with D764N mutation, SEQ ID NO. 53", "values": [{"measurement": "Mean Fluorescence intensity", "setting": "[1]; [5]", "value": 1007}, {"measurement": "Mean Fluorescence intensity", "setting": "[1]; [6]", "value": 684}, {"measurement": "Stabilization ratio", "setting": "[1]; Table 4", "value": 1.5}]}, {"substance": "PDE5AC 535-860 (Q589R): AcGFP fused to PDE5A catalytic domain residues 535-860 with Q589R polymorphism, SEQ ID NO. 11 [reference compound]", "values": [{"measurement": "Mean Fluorescence intensity", "setting": "[1]; [7]", "value": 8557}, {"measurement": "Mean Fluorescence intensity", "setting": "[1]; [8]", "value": 8431}, {"measurement": "Stabilization ratio", "setting": "[1]; Table 5", "value": 1.0}, {"measurement": "basal expression in the absence of ligand (in words)", "setting": "[1]", "value": "high basal expression"}]}, {"substance": "PDE5AN (#55): N-terminal DD 535-860 of PDE5A (Q589R, I648V, M816T), SEQ ID NO. 33, fused to AcGFP", "values": [{"measurement": "Stabilization ratio", "setting": "PDE5A-AcGFP fusions", "value": 2.87}, {"measurement": "Mean Fluorescence Intensity (MFI) Sildenafil (20 μM)", "setting": "PDE5A-AcGFP fusions", "value": 3602}, {"measurement": "Mean Fluorescence Intensity (MFI) Vehicle control", "setting": "PDE5A-AcGFP fusions", "value": 1257}]}, {"substance": "PDE5AC (#41) + D764G: PDE5AC (#41) engineered with D764G mutation, SEQ ID NO. 55", "values": [{"measurement": "Mean Fluorescence intensity", "setting": "[1]; [5]", "value": 730}, {"measurement": "Mean Fluorescence intensity", "setting": "[1]; [6]", "value": 709}, {"measurement": "Stabilization ratio", "setting": "[1]; Table 4", "value": 1.0}]}, {"substance": "PDE5AN (#57): N-terminal DD 535-860 of PDE5A (N587S, Q589R, K608E, N661S, D764V), SEQ ID NO. 68, fused to AcGFP", "values": [{"measurement": "Stabilization ratio", "setting": "PDE5A-AcGFP fusions", "value": 7.6}, {"measurement": "Mean Fluorescence Intensity (MFI) Sildenafil (20 μM)", "setting": "PDE5A-AcGFP fusions", "value": 5851}, {"measurement": "Mean Fluorescence Intensity (MFI) Vehicle control", "setting": "PDE5A-AcGFP fusions", "value": 770}]}, {"substance": "PDE5AN (#35): N-terminal DD 535-860 of PDE5A (S560G, V585A, N587S, Q589R, K591E, S663P, F840S), SEQ ID NO. 32, fused to AcGFP", "values": [{"measurement": "Stabilization ratio", "setting": "PDE5A-AcGFP fusions", "value": 2.50}, {"measurement": "Mean Fluorescence Intensity (MFI) Sildenafil (20 μM)", "setting": "PDE5A-AcGFP fusions", "value": 3684}, {"measurement": "Mean Fluorescence Intensity (MFI) Vehicle control", "setting": "PDE5A-AcGFP fusions", "value": 1476}]}, {"substance": "PDE5AC (#8): AcGFP fused to C-terminal DD 535-860 of PDE5A (F561L, F564L, Q589R, D724N, S766F, T802P), SEQ ID NO. 34", "values": [{"measurement": "Mean Fluorescence intensity", "setting": "[1]; [2]", "value": 3310}, {"measurement": "Mean Fluorescence intensity", "setting": "[1]; [3]", "value": 1066}, {"measurement": "Stabilization ratio", "setting": "[1]; [4]", "value": 3.1}]}, {"substance": "PDE5AC 466-875 (Q589R): AcGFP fused to residues 466-875 of SEQ ID NO. 1 with Q589R polymorphism, SEQ ID NO. 15", "values": [{"measurement": "Mean Fluorescence intensity", "setting": "[1]; [7]", "value": 888}, {"measurement": "Mean Fluorescence intensity", "setting": "[1]; [8]", "value": 819}, {"measurement": "Stabilization ratio", "setting": "[1]; Table 5", "value": 1.1}, {"measurement": "basal expression in the absence of ligand (in words)", "setting": "[1]", "value": "low basal expression"}]}]}
